The values that follow come from ChEMBL document CHEMBL5725356, “Anti-fibrotic pyridinones” (2017).

The structures appear in SMILES notation.

This experiment is described as follows: ET-1 Assay: Fibroblasts (primary human lung and dermal, HFL-1, 3T3 etc) are seeded in 96-well plates at ~15000 cells/well and serum starved for 0-48 hours. After media exchange, compounds serially diluted in DMSO are added to the cells. After a brief incubation of ~30 min, stimulants (TGFb, serum, LPA etc) are added followed by further incubation for 16-48 hours. Media is then harvested and stored frozen in plate format for later endothelin-1 (ET-1) determination by ELISA. Toxicity measurements are made using the ATPlite kit (Perkin-Elmer). ET-1 is quantified using an ELISA kit (R&D Systems). The amount of ET-1 produced in the assay wells are back-calculated using the ELISA standard. The ability of a compound to inhibit ET-1 production is typically analyzed by fitting dose-response curves to a 4-parameter logistic function to obtain an EC50 value. The conditions noted are these: HFL1.
As a reminder, the EC50 is the midpoint of the concentration-response curve. In the case of `Cc1cc(=O)n(-c2ccc(OC(F)(F)F)cc2)cc1-c1cccc(F)c1`, the EC50 was under 50 µM.

Take `CC(C)C(=O)Nc1cc(=O)n(-c2ccc(OC(F)(F)F)cc2)cc1-c1ccc(F)cc1`: the EC50 is over 200 µM.

`O=c1c2cccnc2c(-c2cn[nH]c2)cn1-c1ccc(OC(F)(F)F)cc1`: the EC50 was over 200 µM.

`Cc1cc(=O)n(-c2ccc(OC(F)(F)F)cc2C)cc1-c1ccc(F)cc1`: the EC50 was under 50 µM.

For the compound `Cc1cc(=O)n(-c2ccc(OC(F)(F)F)cc2)cc1-c1cccc2c1OC(F)(F)O2`, the EC50 was under 50 µM.

With `Cc1ccc(-n2cc(-c3ccc(F)cc3)c(C)cc2=O)cc1`, the EC50 entry is “in the range around 125 µM”.

As to `CCn1c(=O)oc2ccc(-c3c[nH]c(=O)cc3C)cc21`, the EC50 is under 50 µM.

As to `O=c1c2[nH]ncc2c(-c2ccc(F)cc2)cn1-c1ccc(OC(F)(F)F)cc1`, the concentration giving a half-maximal response (EC50) is under 50 µM.

Turning to `O=c1ccc(-c2cccc(Cl)c2)cn1-c1cccc(C(F)(F)F)c1`, the EC50 is under 50 µM.

Consider `Cc1cc(=O)n(-c2cccc3c2OCCO3)cc1-c1ccc(F)cc1`, for which the EC50 entry was “in the range around 125 µM”.

`O=c1ccc(Br)cn1-c1ccc(Cl)cc1`: the EC50 is over 200 µM.

`Cc1cc(=O)n(-c2ccc(OC(F)(F)F)cc2)cc1-c1ccc2c(c1)NC(=O)CO2`: the EC50 was under 50 µM.

Consider `Cc1cc(-c2cnn(C)c2)cn(-c2ccccc2)c1=O`, for which the EC50 result was “in the range around 125 µM”.

For `O=c1cc(C(F)(F)F)c(-c2ccc(F)cc2)cn1-c1ccc(OC(F)(F)F)cc1`, the EC50 result is “in the range around 125 µM”.

For `COCCOCCOCCOc1cccc(-n2cc(C)ccc2=O)c1`, the EC50 was over 200 µM.

On to `Cn1cc(-c2cn(-c3ccc(OC(F)(F)F)cc3)c(=O)c3cccnc23)cn1`, for which the half-maximal effective concentration (EC50) is under 50 µM.

With `Cc1cc(=O)n(-c2ccc(F)cc2)cc1-c1ccc(OC(F)(F)F)cc1`, the EC50 result is “in the range around 125 µM”.

Regarding `Cn1cc(-c2cn(-c3ccc(OC(F)(F)F)cc3)c(=O)cc2Oc2ccccc2)cn1`, the EC50 is under 50 µM.

Turning to `CC(C)n1cc(-c2ccc(=O)n(-c3ccccc3)c2)cn1`, the EC50 was over 200 µM.

For the compound `Cc1cc(=O)n(-c2ccc3c(c2)OCCO3)cc1-c1cnn(C)c1`, the EC50 is over 200 µM.

For `Cc1cc(=O)n(-c2ccc(Cl)cc2)cc1-c1ccnnc1`, the concentration for a half-maximal effect (EC50) is over 200 µM.

Regarding `CCn1ccc2c(-c3ccc(F)cc3)c[nH]c(=O)c21`, the EC50 is under 50 µM.

With `CC(C)OC(=O)Nc1cc(=O)n(-c2ccc(OC(F)(F)F)cc2)cc1-c1cnn(C)c1`, the EC50 was over 200 µM.

For the compound `Cc1cc(=O)n(-c2ccccc2C)cc1-c1ccc(F)cc1`, the EC50 entry is “in the range around 125 µM”.

For the compound `CC(C)Oc1ccc(-n2cc(-c3ccc(F)cc3)ccc2=O)cc1`, the concentration for a half-maximal effect (EC50) result was “in the range around 125 µM”.

`Cc1nc2ccn(-c3ccc(OC(F)(F)F)cc3)c(=O)c2s1`: the half-maximal effective concentration (EC50) is over 200 µM.

With `Cc1cc(=O)n(-c2ccc(Cl)cc2C)cc1-c1ccccc1`, the concentration giving a half-maximal response (EC50) entry is “in the range around 125 µM”.

As to `Cn1ccc2c(-c3cn[nH]c3)cn(-c3ccc(C#N)cc3)c(=O)c21`, the EC50 was under 50 µM.

On to `O=c1ccc(C2CCC2)cn1-c1ccccc1`, for which the EC50 was over 200 µM.

Take `Cc1cc(=O)n(-c2ccc(OC(F)(F)F)cc2)cc1-c1nn[nH]n1`: the EC50 is over 200 µM.

For `CC(C)OC(=O)Nc1cc(=O)n(-c2ccc(OC(F)(F)F)cc2)cc1-c1ccc(F)cc1`, the EC50 is over 200 µM.

For `Cn1cc(-c2cn(-c3ccc(OC(F)(F)F)cc3)c(=O)cc2NCc2ccc(C#N)cc2)cn1`, the EC50 was over 200 µM.

Regarding `O=c1cc(Oc2ccccc2)c(-c2ccc(F)cc2)cn1-c1ccc(OC(F)(F)F)cc1`, the EC50 was over 200 µM.

For the compound `Cn1cc(-c2cn(-c3ccc(OC(F)(F)F)cc3)c(=O)cc2Oc2ccccc2Cl)cn1`, the EC50 is under 50 µM.

In the case of `CC(C)N1N=NC2C(=O)N(c3ccc(OC(F)(F)F)cc3)C=C(c3cnn(C)c3)C21` (stereo not given), the EC50 entry is “in the range around 125 µM”.

For the compound `CCn1nnc2c(-c3ccc(F)cc3)cn(-c3ccc(OC(F)(F)F)cc3)c(=O)c21`, the EC50 is under 50 µM.

Turning to `O=C1COc2c(-c3ccc(F)cc3)cn(-c3ccc(OC(F)(F)F)cc3)c(=O)c2N1`, the EC50 is over 200 µM.

As to `NS(=O)(=O)c1ccc(-c2ccc(=O)n(-c3cccc(C(F)(F)F)c3)c2)cc1`, the EC50 is over 200 µM.

On to `CCOc1ccc(-n2cc(-c3cnn(C)c3)c(NCc3cc(F)cc(F)c3)cc2=O)c(C)c1`, for which the EC50 is under 50 µM.

Consider `Cn1cc(-c2cn(-c3ccc(Cl)cc3)c(=O)c3cccnc23)cn1`, for which the EC50 is over 200 µM.

For `CCn1ccc2c(=O)n(-c3ccc(OC(F)(F)F)cc3)cc(-c3ccc(F)cc3)c21`, the EC50 is under 50 µM.

In the case of `CCOc1ccc(-n2cc(-c3cnn(C)c3)c3nn(CC)nc3c2=O)c(C)c1`, the EC50 entry was “in the range around 125 µM”.

As for `Cc1cc(=O)n(-c2ccc(OC(F)(F)F)cc2)cc1-c1ccc2cn(C)nc2c1`, the EC50 entry was “in the range around 125 µM”.

As for `Cc1cc(=O)n(-c2cccc(OC(F)(F)F)c2)cc1-c1ccccc1`, the EC50 is under 50 µM.

As to `CCOc1ccc(-n2cc(-c3cnn(C)c3)c(OCCOCCOC)cc2=O)c(C)c1`, the EC50 result is “in the range around 125 µM”.

Regarding `O=c1c2[nH]cnc2c(-c2cn[nH]c2)cn1-c1ccc(OC(F)(F)F)cc1`, the EC50 is under 50 µM.

As to `CCOc1ccc(-n2cc(-c3cnn(C)c3)c(NCc3cccnc3)cc2=O)c(C)c1`, the EC50 was under 50 µM.

Consider `Cc1n[nH]c(C)c1-c1ccc(=O)n(-c2ccc(F)cc2)c1`, for which the EC50 is over 200 µM.

As to `CS(=O)(=O)n1cc(-c2ccc(=O)n(-c3ccccc3)c2)cn1`, the EC50 is over 200 µM.

For the compound `Cc1cc(=O)[nH]cc1-c1cccc2c1OC(F)(F)O2`, the EC50 was under 50 µM.

As to `O=c1c2c(c(-c3cccc(F)c3)cn1-c1ccc(OC(F)(F)F)cc1)CCCC2`, the EC50 is under 50 µM.

On to `Cc1cc(=O)n(-c2ccc(OC(F)(F)F)cc2)cc1-c1cccnc1`, for which the EC50 is over 200 µM.

Consider `Cn1cc(-c2cn(-c3ccc(OC(F)(F)F)cc3)c(=O)cc2Cl)cn1`, for which the EC50 was over 200 µM.

Take `O=C1Cc2ccccc2N1c1ccc(OC(F)(F)F)cc1`: the EC50 entry was “in the range around 125 µM”.

Turning to `O=c1ccc(-c2ccccc2)cn1-c1ccc(F)cc1`, the EC50 entry is “in the range around 125 µM”.

On to `CN1C(=O)COc2c(-c3ccc(F)cc3)cn(-c3ccc(OC(F)(F)F)cc3)c(=O)c21`, for which the EC50 is over 200 µM.

For the compound `CC(C)n1cc(-c2cn(-c3ccc(OC(F)(F)F)cc3)c(=O)c3c2ncn3C)cn1`, the concentration for a half-maximal effect (EC50) was under 50 µM.

`O=c1cc(NCc2ncccn2)ccn1-c1ccc(OC(F)(F)F)cc1`: the EC50 was over 200 µM.

Consider `CC(=O)Nc1cccc(-n2cc(-c3ccc(F)cc3)c(Oc3ccccc3)cc2=O)c1`, for which the EC50 was under 50 µM.

Turning to `Cc1nc2c(-c3cnn(Cc4ccccc4)c3)cn(-c3ccc(OC(F)(F)F)cc3)c(=O)c2s1`, the EC50 was under 50 µM.

Turning to `Cc1ccccc1-n1cc(-c2cnn(C)c2)ccc1=O`, the EC50 is over 200 µM.

Consider `CC(=O)Nc1cccc(-n2cc(-c3ccccc3)c(C)cc2=O)c1`, for which the EC50 was over 200 µM.

Consider `CC(C)c1ccc(=O)n(-c2ccccc2)c1`, for which the EC50 is over 200 µM.

As for `CCOc1ccc(CNc2cc(=O)n(-c3ccc(OC(F)(F)F)cc3)cc2-c2cnn(C)c2)c(F)c1`, the EC50 is under 50 µM.

Regarding `CCn1cnc2c(-c3cnn(C)c3)cn(-c3ccc(OC(F)(F)F)cc3)c(=O)c21`, the EC50 is under 50 µM.
